For 13 compounds, pest or weed control and inhibition results are on record in patent publication US6861390B2, “Derivatives of UK-2A” (priority 2001, dated 2005).

Assay [1] deals with Septoria tritici (SEPTTR). Kind of assay: Leaf Blotch of Wheat, whole plant 24 Hour Protectant (T6). The note with it: Zymoseptoria tritici; wheat (cultivar Monon), sprayed at 100 ppm, inoculated after 24 hours; read-out: T6 SEPTTR in vivo 1 Day Protectant, control of fungal infection.
The next assay deals with Ustilago maydis (USTIMA). Description: microbe, parasite or virus in culture. It counts as cell-based. The conditions noted are these: Mycosarcoma maydis, read-out: T12 USTIMA in vitro Growth Inhibition.
Assay [2] deals with Erysiphe graminis (ERYSGT). Kind of assay: Powdery Mildew of Wheat, whole plant 24 Hour Protectant (T1). The conditions noted are these: Blumeria graminis, in Triticum aestivum, read-out: T1 ERYSGT in vivo 1 Day Protectant, control of fungal infection.
Experimental: Compound formulation was accomplished by dissolving technical materials in acetone, with serial dilutions then made in acetone to obtain desired concentrations. Final treatment volumes were obtained by adding 9 volumes 0.01% Triton X-100.
Powdery Mildew of Wheat (Erysiphe graminis—ERYSGT) (24 Hour Protectant): Wheat (cultivar Monon) was grown in a soilless peat-based potting mixture (“Metromix”) and mineral soil (50/50 mix) until the seedlings were 10-20 cm tall. These plants were then sprayed to run-off with the test compound at a rate of 100 ppm. After 24 hours the test plants were inoculated by dusting with conidia from powdery mildew infected wheat plants. The plants were then transferred to the greenhouse until disease developed on the untreated control plants.
The subject of assay [3] is Magnaporthe grisea (Pyricularia oryzae, PYRIOR). Kind of assay: microbe, parasite or virus in culture. It is filed as cell-based. The conditions noted are these: read-out: T9 PYRIOR in vitro Growth Inhibition.
Assay [4] deals with Leptosphaeria nodorum (LEPTNO). Description: Glume Blotch of Wheat, whole plant 24 Hour Protectant (T2). The conditions noted are these: Parastagonospora nodorum; wheat (cultivar Yuma), sprayed at 100 ppm, inoculated after 24 hours; read-out: T2 LEPTNO in vivo 1 Day Protectant, control of fungal infection.
Assay [5] relates to Rhizoctonia solani (RHIZSO). Kind of assay: microbe, parasite or virus in culture. It is filed as cell-based. The conditions noted are these: read-out: T10 RHIZSO in vitro Growth Inhibition.
Assay [6] relates to Stagonospora nodorum (Leptosphaeria nodorum, LEPTNO). Description: microbe, parasite or virus in culture. It is filed as cell-based. The conditions noted are these: Parastagonospora nodorum, read-out: T7 LEPTNO in vitro Growth Inhibition.
The test system of assay [7] is Mycosphaerella graminicola (Septoria tritici, SEPTTR). Description: microbe, parasite or virus in culture. It is filed as cell-based. The note with it: Zymoseptoria tritici, read-out: T11 SEPTTR in vitro Growth Inhibition.
The subject of assay [8] is Phytophthora infestans (PHYTIN). Description: microbe, parasite or virus in culture. It counts as cell-based. The conditions noted are these: in Secale cereale, read-out: T8 PHYTIN in vitro Growth Inhibition.
For assay [9] the test system is unchanged. Kind of assay: whole plant or invertebrate. The conditions noted are these: in Solanum lycopersicum, 24 h, read-out: T3 PHYTIN in vivo 1 Day Protectant, control of fungal infection.
Assay [10] concerns Puccinia recondita (PUCCRT). Description: Brown Rust of Wheat, whole plant 24 Hour Protectant (T5). The conditions noted are these: wheat (cultivar Yuma), sprayed at 100 ppm, inoculated after 24 hours, read-out: T5 PUCCRT in vivo 1 Day Protectant, control of fungal infection.

As to `COc1ccnc(C(=O)N[C@H]2COC(=O)[C@H](Cc3ccccc3)[C@@H](OC(=O)C(C)C)[C@H](C)OC2=O)c1OCOC(=O)COc1ccccc1` [Compound 42], the pest or weed control at 100 ppm was less than 25% in assay [1]; less than 25% in assay [2]; 75 to 100% in assay [4]; less than 25% in [9]; 75 to 100% in [10]. Besides, the inhibition at 25 ppm is less than 80% in the assay on Ustilago maydis (USTIMA); greater than 80% in assay [3]; less than 80% in [5]; greater than 80% in [6]; greater than 80% in assay [7]; less than 80% in assay [8].

On to `COc1ccnc(C(=O)N[C@H]2COC(=O)[C@H](Cc3ccccc3)[C@@H](OC(=O)C(C)C)[C@H](C)OC2=O)c1OC1OC(=O)c2ccccc21` (some centres unmarked) [Compound 43], for which the pest or weed control at 100 ppm was 75 to 100% in assay [1]; 25 to 74% in assay [2]; 75 to 100% in assay [4]; less than 25% in [9]; 75 to 100% in assay [10]. Also, the inhibition at 25 ppm is less than 80% in the assay with Ustilago maydis (USTIMA); less than 80% in [3]; less than 80% in assay [5]; greater than 80% in assay [6]; greater than 80% in assay [7]; less than 80% in assay [8].

As for `CCOC(=O)OCOc1c(OC)ccnc1C(=O)N[C@H]1COC(=O)[C@H](Cc2ccccc2)[C@@H](OC(=O)C(C)C)[C@H](C)OC1=O` [Compound 45], the pest or weed control at 100 ppm in [1] is 75 to 100%; in assay [2] it was 25 to 74%; in assay [4], 75 to 100%; in assay [9] it was 25 to 74%; in [10], 75 to 100%. Also, the inhibition at 25 ppm is less than 80% with Ustilago maydis (USTIMA); greater than 80% in assay [3]; less than 80% in assay [5]; greater than 80% in assay [6]; less than 80% in assay [7]; less than 80% in assay [8].

As for `CCCOC(=O)OCOc1c(OC)ccnc1C(=O)N[C@H]1COC(=O)[C@H](Cc2ccccc2)[C@@H](OC(=O)C(C)C)[C@H](C)OC1=O` [Compound 46], the pest or weed control at 100 ppm in assay [1] is 75 to 100%; in assay [2], 25 to 74%; in [4] it was 75 to 100%; in assay [9] it was less than 25%; in assay [10], 75 to 100%. Also, the inhibition at 25 ppm in the assay on Ustilago maydis (USTIMA) was less than 80%; in assay [3], greater than 80%; in assay [5] it was less than 80%; in [6], greater than 80%; in assay [7] it was less than 80%; in assay [8], less than 80%.

For `COCCOC(=O)OCOc1c(OC)ccnc1C(=O)N[C@H]1COC(=O)[C@H](Cc2ccccc2)[C@@H](OC(=O)C(C)C)[C@H](C)OC1=O` [Compound 48], the pest or weed control at 100 ppm was 75 to 100% in assay [1]; 75 to 100% in [2]; 75 to 100% in assay [4]; less than 25% in assay [9]; 75 to 100% in [10]. Further, the inhibition at 25 ppm in the assay on Ustilago maydis (USTIMA) was greater than 80%; in [3], less than 80%; in assay [5], less than 80%; in assay [6], greater than 80%; in assay [7] it was less than 80%; in [8], less than 80%.

As to `COCCC(=O)OCOc1c(OC)ccnc1C(=O)N[C@H]1COC(=O)[C@H](Cc2ccccc2)[C@@H](OCC(C)C)[C@H](C)OC1=O` [Compound 54], the pest or weed control at 100 ppm in assay [1] is 75 to 100%; in [2] it was 75 to 100%; in assay [4], 75 to 100%; in [9], less than 25%; in [10] it was 75 to 100%. For the same compound, the inhibition at 25 ppm in the assay with Ustilago maydis (USTIMA) was greater than 80%; in assay [3], greater than 80%; in [5], less than 80%; in [6], greater than 80%; in [7], greater than 80%; in [8] it was less than 80%.

As to `CCCO[C@H]1[C@H](C)OC(=O)[C@@H](NC(=O)c2nccc(OC)c2OCOC(=O)CCOC)COC(=O)[C@@H]1Cc1ccccc1` [Compound 55], the pest or weed control at 100 ppm in [1] is 75 to 100%; in assay [2], 75 to 100%; in assay [4], 75 to 100%; in [9], less than 25%; in [10] it was 75 to 100%. The inhibition at 25 ppm in the assay on Ustilago maydis (USTIMA) was less than 80%; in [3], greater than 80%; in [5], less than 80%; in assay [6], greater than 80%; in assay [7], greater than 80%; in assay [8] it was less than 80%.

In the case of `COc1ccnc(C(=O)N[C@H]2COC(=O)[C@H](Cc3ccccc3)[C@@H](OCC(C)C)[C@H](C)OC2=O)c1OCOC(=O)C1CC1` [Compound 56], the pest or weed control at 100 ppm in assay [1] is 75 to 100%; in assay [2] it was 75 to 100%; in [4] it was 75 to 100%; in assay [9], less than 25%; in assay [10], 75 to 100%. Further, the inhibition at 25 ppm in the assay on Ustilago maydis (USTIMA) is less than 80%; in [3], greater than 80%; in [5], less than 80%; in assay [6], greater than 80%; in assay [7], greater than 80%; in assay [8], less than 80%.

Regarding `COCCOC(=O)OCOc1c(OC)ccnc1C(=O)N[C@H]1COC(=O)[C@H](Cc2ccccc2)[C@@H](OCC(C)C)[C@H](C)OC1=O` [Compound 57], the pest or weed control at 100 ppm in [1] is 75 to 100%; in [2], 75 to 100%; in [4], 75 to 100%; in assay [9], less than 25%; in assay [10], 75 to 100%. Also, the inhibition at 25 ppm with Ustilago maydis (USTIMA) was greater than 80%; in [3], greater than 80%; in assay [5] it was less than 80%; in assay [6] it was greater than 80%; in assay [7], greater than 80%; in assay [8], less than 80%.

With `COCC(=O)OCOc1c(OC)ccnc1C(=O)N[C@H]1COC(=O)[C@H](Cc2ccccc2)[C@@H](OCC(C)C)[C@H](C)OC1=O` [Compound 58], the pest or weed control at 100 ppm in [1] was 75 to 100%; in [2], 75 to 100%; in [4], 75 to 100%; in [9] it was less than 25%; in [10] it was 75 to 100%. The inhibition at 25 ppm in the assay with Ustilago maydis (USTIMA) was greater than 80%; in assay [3] it was greater than 80%; in assay [5], less than 80%; in assay [6] it was greater than 80%; in [7] it was greater than 80%; in assay [8] it was greater than 80%.

Take `CCOCC(=O)OCOc1c(OC)ccnc1C(=O)N[C@H]1COC(=O)[C@H](Cc2ccccc2)[C@@H](OCC(C)C)[C@H](C)OC1=O` [Compound 59]: the pest or weed control at 100 ppm was 75 to 100% in [1]; 75 to 100% in assay [2]; 75 to 100% in assay [4]; less than 25% in assay [9]; 75 to 100% in assay [10]. Further, the inhibition at 25 ppm in the assay on Ustilago maydis (USTIMA) was greater than 80%; in [3] it was greater than 80%; in assay [5], less than 80%; in [6], greater than 80%; in assay [7], greater than 80%; in [8], greater than 80%.

Regarding `CCCO[C@H]1[C@H](C)OC(=O)[C@@H](NC(=O)c2nccc(OC)c2OCOC(=O)COCC)COC(=O)[C@@H]1Cc1ccccc1` [Compound 60], the pest or weed control at 100 ppm is 75 to 100% in assay [1]; 75 to 100% in assay [2]; 75 to 100% in assay [4]; less than 25% in assay [9]; 75 to 100% in assay [10]. Also, the inhibition at 25 ppm with Ustilago maydis (USTIMA) was greater than 80%; in assay [3] it was greater than 80%; in assay [5], less than 80%; in assay [6], greater than 80%; in [7], greater than 80%; in [8], greater than 80%.

With `COc1ccnc(C(=O)N[C@H]2COC(=O)[C@H](Cc3ccccc3)[C@@H](OCC(C)C)[C@H](C)OC2=O)c1OCOC(=O)C1CCCC1` [Compound 61], the pest or weed control at 100 ppm in [1] was 75 to 100%; in assay [2] it was 75 to 100%; in assay [4], 75 to 100%; in [9], less than 25%; in [10], 75 to 100%. Also, the inhibition at 25 ppm in the assay with Ustilago maydis (USTIMA) was greater than 80%; in assay [3] it was greater than 80%; in [5], less than 80%; in assay [6], greater than 80%; in [7], greater than 80%; in assay [8], less than 80%.

In general, inhibition refers to the change of the read-out against control, counted positive when it falls.
